Assay results from patent US20100056623A1, “FUMAGILLOL DERIVATIVES OR METHOD FOR PREPARATION OF FUMAGILLOL DERIVATIVES, AND PHARMACEUTICAL COMPOSITIONS COMPRISING THE SAME” (CHONG KUN DANG PHARMACEUTICAL CORP., priority 2005, published 2010).
Read-outs that look alike come from different tables or passages of the source.

Columns and labels:
[1] = tested on: CPAE (calf pulmonary artery endothelial cell); experiment: Inhibiting activity on cell proliferation, SRB analysis (CPAE); type: cell-based; settings: for IC50: CPAE cells, 3 days with drug, SRB, read-out: IC50 (nM) CAPE; for Selectivity Index (L5178Y/CAPE): IC50 L5178Y / IC50 CPAE
Description: (§1) In order to compare the safety index (SI) of CPAE (calf pulmonary artery endothelial cell) with that of HUVEC (human umbilical vein endothelial cell), L5178Y lymphoma that was isolated from murine thymus was used. The safety index was defined as IC50 ratio of L5178Y against CPAE (IC50L5178Y/IC50CPAE). All cell lines, which had been kept in liquid nitrogen tank, were used after being thawed and subcultured 2˜3 times in T-flask. CPAE, HUVEC and L5178Y were cultured in MEM culture medium (20% FBS, 50˜100 μg/ml ECGS, 0.15% baking soda, 0.05 mg/ml gentamicin), M199 culture medium (20% FBS, 0.22% baking soda, 100 μg/ml heparin, 3 ng/ml bFGF, 0.05 mg/ml gentamicin) and RPMI 1640 culture medium (10% FBS, 0.2% baking soda, 0.05 mg/ml gentamicin), respectively, under the condition of 37° C. and 5% CO2.
(§2) The drug was prepared by being gradationally diluted to two or ten times by using PBS, 20 μl of the solution was added to each well of 96 well plate in triplicate. The cell, which is being incubated, was treated with trypsin to give cell suspension. The number of cell thereafter was counted. And 180 μl of the solution was inoculated to each well and cultured.
(§3) The cell was cultured with drugs for 3 days and then 50 μl of 50% TCA was added thereto (final concentration 10%). Subsequently the cell was fixed by being left alone at 4° C. for 1 hour. The well was washed 4 times by distilled water and then dried. After that 100 μl of SRB (Sulforhodamine B, Sigma Chemical Co.) solution (0.4% w/v in 1% acetic acid) was added thereto and then it was left alone at ordinary temperature for 30 minutes. Thereafter the well was washed 4 times by 1% acetic acid and dried. And then after adding 200 μl of 10 mM tris buffer, the absorbance at 570 nm was measured by automatic microplate reader (Model: Elx 808, Bio-Tek Instrument, INC). The viability was calculated from the ratio of the absorbance of the control to which drugs were not added and the well to which drugs were added.

[2] = Chemical stability test (HPLC purity); settings: for change of purity (in words) / chemical stability compared to known compounds / 1 month Other peaks (%) / 1 month Parent peak (%): 1 month at 40±2° C.; for change of purity (in words) / chemical stability compared to known compounds / 1 month Other peaks (%) / 1 month Parent peak (%) / change of purity (%): 75±5% relative humidity; for 1 month Other peaks (%) / 1 month Parent peak (%) / Initial Other peaks (%) / Initial Parent peak (%): HPLC; for 1 month Other peaks (%) / 1 month Parent peak (%): air-tight vessel; for change of purity (%): initial vs 1 month at 40±2° C.
Description: Each compound of the present invention was kept in an air-tight vessel for 1 month at 40±2° C. and 75±5% of relative humidity. Thereafter the HPLC purity test was executed.
25 mL of the solution was precisely taken, and poured into 100 mL volumetric flask. Acetonitrile/20 mM ammonium acetate aqueous solution (50:50) was added thereto to be the total volume of 100 ml. The solution was filtrated, and the filtrate was used as a test liquid.
(2) Operational Condition of Instrument. • Column: Kromasil®C18 (UG 100 Å, 5 μm, 4.6 mm Φ×250 mm) • Column temperature: 30° C. • Mobil phase: 20 mM ammonium acetate (pH 4.2) buffer:acetonitrile (55:45) • Injection volume: 20 μL • Flow rate: 1.2 mL/min • Detector: UV light-absorption Spectrophotometer (detection wavelength: 306 nm)

Solubility test = type: physicochemical; settings: ordinary temperature
Description: To a constant amount (400 mg) of each compounds of present invention, a constant amount of demineralized water, methanol and ethanol were added separately, and the solution was stirred at ordinary temperature.

L5178Y lymphoma = experiment: Inhibiting activity on cell proliferation, MTT analysis (L5178Y); type: cell-based, murine; settings: L5178Y lymphoma cells, 3 days with drug
Description: as §1, §2
The tumor cell was cultured with drugs for 3 days and then 50 μl of MTT (3-(4,5-dimethylthiazole-2-yl)-2,5-diphenyl tetrazolium bromide, Sigma Chemical Co.) solution (2.5 mg/ml in PBS) was added thereto. And it was further cultured for 4 hours at 37° C. Culture medium was removed carefully. And after dissolving formazan crystal by adding 150 μl of DMSO, the absorbance at 570 nm was determined.

[3] = tested on: HUVEC (human umbilical vein endothelial cell); experiment: Inhibiting activity on cell proliferation, SRB analysis (HUVEC); type: cell-based; settings: Homo sapiens, 72 h, HUVEC cells, 3 days with drug
Description: as §1, §2, §3

[4] = Bos taurus, Endothelial cell, 72 h

SMILES | IC50 (L5178Y lymphoma; Mus musculus, 72 h) | IC50 [1, 4] | Selectivity Index (L5178Y/CAPE) [1] | change of purity (in words) [2] | chemical stability compared to known compounds [2] | 1 month Other peaks (%) [2] | 1 month Parent peak (%) [2] | Initial Other peaks (%) [2] | Initial Parent peak (%) [2] | change of purity (%) [2] | The amount of solvent to dissolve 1 g of the compounds (ml), demineralized water (Solubility test) | The amount of solvent to dissolve 1 g of the compounds (ml), ethanol (Solubility test) | The amount of solvent to dissolve 1 g of the compounds (ml), methanol (Solubility test) | IC50 [3] | effect compared to CKD-731 against CPAE ([1]; relative to CKD-731) | IC50 [1] | IC50 (L5178Y lymphoma)
CO[C@@H]1[C@H](OC(=O)/C=C/c2ccc(OCCCCCCO)c(C(F)(F)F)c2)CC[C@]2(CO2)[C@H]1[C@@]1(C)O[C@@H]1CC=C(C)C [Example 26, O-(3-trifluoromethyl-4-(6-hydroxyhexyloxy)cinnamoyl)fumagillol] | 9990 nM | 0.677 nM | 1.48 × 10^4 |  |  |  |  |  |  |  |  |  |  | 0.0019 nM |  |  | 
CO[C@@H]1[C@H](OC(=O)/C=C/c2ccc(OCCCO)c(C#N)c2)CC[C@]2(CO2)[C@H]1[C@@]1(C)O[C@@H]1CC=C(C)C [Example 20, O-(3-cyano-4-(3-hydroxypropoxy)cinnamoyl)fumagillol] | 20500 nM | 0.046 nM | 4.45 × 10^5 |  |  |  |  |  |  |  |  |  |  |  |  |  | 
CO[C@@H]1[C@H](OC(=O)/C=C/c2ccc(OCCCCO)c(C)c2)CC[C@]2(CO2)[C@H]1[C@@]1(C)O[C@@H]1CC=C(C)C [Example 22, O-(3-methyl-4-(4-hydroxybutoxy)cinnamoyl)fumagillol] | 32500 nM | 0.048 nM | 6.76 × 10^5 |  |  |  |  |  |  |  |  |  |  |  |  |  | 
CO[C@@H]1[C@H](OC(=O)/C=C/c2ccc(OCCCCO)cc2)CC[C@]2(CO2)[C@H]1[C@@]1(C)O[C@@H]1CC=C(C)C [Example 21, O-(4-(4-hydroxybutoxy)cinnamoyl)fumagillol] | 25800 nM | 0.029 nM | 8.90 × 10^5 | hardly showed a change of purity | more excellent chemical stability than TNP-470, CKD-732 and CKD-731 | 1.1% | 98.9% | 1.0% | 99.0% | 0.1% | 150 mL | 97 mL | 70 mL |  |  |  | 
CO[C@@H]1[C@H](OC(=O)/C=C/c2ccc(OCCO)cc2)CC[C@]2(CO2)[C@H]1[C@@]1(C)O[C@@H]1CC=C(C)C [Example 1, O-(4-(2-hydroxyethoxy)cinnamoyl)fumagillol] | 15500 nM | 0.0025 nM | 6.22 × 10^6 | hardly showed a change of purity | more excellent chemical stability than TNP-470, CKD-732 and CKD-731 | 0.6% | 99.4% | 0.6% | 99.4% | 0% | 135 mL | 55 mL | 34 mL |  | equivalent or not smaller than twice effect of CKD-731 |  | 
COc1cc(C=CC(=O)OC2CCC3(CO3)C(C3(C)OC3CC=C(C)C)C2OC)cc(OC)c1OC (centres unmarked) [CKD-731, O-(3,4,5-trimethoxycinnamoyl)fumagillol, reference compound] |  |  |  |  |  | 2.9% | 97.1% | 1.1% | 98.9% | 1.8% | 1567 mL | 372 mL | 350 mL |  |  | 0.0044 nM | 58200 nM
COc1cc(/C=C/C(=O)O[C@@H]2CC[C@]3(CO3)[C@@H]([C@@]3(C)O[C@@H]3CC=C(C)C)[C@@H]2OC)ccc1Oc1ccc(CO)cc1 [Example 10, O-(4-(4-hydroxymethylphenoxy)-3-methoxycinnamoyl)fumagillol] | 42500 nM | 0.711 nM | 6.00 × 10^4 |  |  |  |  |  |  |  |  |  |  |  |  |  | 
COc1cc(/C=C/C(=O)O[C@@H]2CC[C@]3(CO3)[C@@H]([C@@]3(C)O[C@@H]3CC=C(C)C)[C@@H]2OC)cc(OC)c1OCCOCCO [Example 13, O-(3,5-dimethoxy-4-(2-hydroxyethoxyethoxy)cinnamoyl)fumagillol] | 34600 nM | 0.17 nM | 2.03 × 10^5 |  |  |  |  |  |  |  |  |  |  |  |  |  | 

Further lines, with some results ahead:

IC50 (L5178Y lymphoma; Mus musculus, 72 h) | SMILES | IC50 [1, 4] | Selectivity Index (L5178Y/CAPE) [1] | change of purity (in words) [2] | chemical stability compared to known compounds [2] | 1 month Other peaks (%) [2] | 1 month Parent peak (%) [2] | Initial Other peaks (%) [2] | Initial Parent peak (%) [2] | change of purity (%) [2] | The amount of solvent to dissolve 1 g of the compounds (ml), demineralized water (Solubility test) | The amount of solvent to dissolve 1 g of the compounds (ml), ethanol (Solubility test) | The amount of solvent to dissolve 1 g of the compounds (ml), methanol (Solubility test) | IC50 [3] | effect compared to CKD-731 against CPAE ([1]; relative to CKD-731) | IC50 [1] | IC50 (L5178Y lymphoma)
10500 nM | CO[C@@H]1[C@H](OC(=O)/C=C/c2ccc(OCCOCCOCCO)cc2)CC[C@]2(CO2)[C@H]1[C@@]1(C)O[C@@H]1CC=C(C)C [Example 27, O-(4-(2-hydroxyethoxyethoxyethoxy)cinnamoyl)fumagillol] | 0.089 nM | 1.18 × 10^5 | hardly showed a change of purity | more excellent chemical stability than TNP-470, CKD-732 and CKD-731 | 1.6% | 98.4% | 1.6% | 98.4% | 0% | 120 mL | 50 mL | 30 mL |  |  |  | 
50100 nM | COc1cc(/C=C/C(=O)O[C@@H]2CC[C@]3(CO3)[C@@H]([C@@]3(C)O[C@@H]3CC=C(C)C)[C@@H]2OC)ccc1OCCOCCO [Example 14, O-(4-(2-hydroxyethoxyethoxy)-3-methoxycinnamoyl)fumagillol] | 0.26 nM | 1.93 × 10^5 |  |  |  |  |  |  |  |  |  |  |  |  |  | 
41900 nM | CO[C@@H]1[C@H](OC(=O)/C=C/c2ccc(Cl)c(NCCOCCO)c2)CC[C@]2(CO2)[C@H]1[C@@]1(C)O[C@@H]1CC=C(C)C [Example 18, O-(4-chloro-3-(2-hydroxyethoxyethylamino)cinnamoyl)fumagillol] | 0.045 nM | 9.31 × 10^5 |  |  |  |  |  |  |  |  |  |  | 0.0019 nM |  |  | 
24900 nM | CO[C@@H]1[C@H](OC(=O)/C=C/c2ccc(OCCCO)cc2)CC[C@]2(CO2)[C@H]1[C@@]1(C)O[C@@H]1CC=C(C)C [Example 19, O-(4-(3-hydroxypropoxy)cinnamoyl)fumagillol] | 0.017 nM | 1.46 × 10^6 |  |  |  |  |  |  |  |  |  |  |  |  |  | 
20500 nM | CO[C@@H]1[C@H](OC(=O)/C=C/c2ccc(OCCOCCO)cc2)CC[C@]2(CO2)[C@H]1[C@@]1(C)O[C@@H]1CC=C(C)C [Example 12, O-(4-(2-hydroxyethoxyethoxy)cinnamoyl)fumagillol] | 0.019 nM | 1.08 × 10^6 | hardly showed a change of purity | more excellent chemical stability than TNP-470, CKD-732 and CKD-731 | 0.6% | 99.4% | 0.5% | 99.5% | 0.1% | 126 mL | 51 mL | 35 mL |  |  |  | 
41900 nM | COc1ccc(/C=C/C(=O)O[C@@H]2CC[C@]3(CO3)[C@@H]([C@@]3(C)O[C@@H]3CC=C(C)C)[C@@H]2OC)cc1OCCOCCO [Example 15, O-(3-(2-hydroxyethoxyethoxy)-4-methoxycinnamoyl)fumagillol] | 0.4 nM | 1.05 × 10^5 |  |  |  |  |  |  |  |  |  |  |  |  |  | 
